# According to patent US20210395254A1, “NEW TETRAHYDROPYRIMIDODIAZEPIN AND TETRAHYDROPYRIDODIAZEPIN COMPOUNDS FOR TREATING PAIN AND PAIN RELATED CONDITIONS” (ESTEVE PHARMACEUTICALS, S.A., priority 2018, published 2021):
# Tests used:
# [1] = target: human α2δ-1 subunit of Cav2.2 calcium channel (Homo sapiens, UniProt P54289); assay: Binding assay to human α2δ-1 subunit of Cav2.2 calcium channel ([3H]-Gabapentin); conditions: [3H]-Gabapentin 15 nM, human α2δ-1 enriched membranes
# Protocol: Binding assay to human α2δ-1 subunit of Cav2.2 calcium channel. Human a26-1 enriched membranes (2.5 μg) were incubated with 15 nM of radiolabeled [3H]-Gabapentin in assay buffer containing Hepes-KOH 10 mM, pH 7.4. NSB (non specific binding) was measured by adding 10 μM pregabalin. The binding of the test compound was measured at either one concentration (% inhibition at 1 or 10 μM) or five different concentrations to determine affinity values (Ki). After 60 min incubation at 27° C., binding reaction was terminated by filtering through Multiscreen GF/C (Millipore) presoaked in 0.5% polyethyleneimine in Vacuum Manifold Station, followed by 3 washes with ice-cold filtration buffer containing 50 mM Tris-HCl, pH 7.4. Filter plates were dried at 60° C. for 1 hour and 30 μl of scintillation cocktail were added to each well before radioactivity reading. Readings were performed in a Trilux 1450 Microbeta radioactive counter (Perkin Elmer).
# [2] = target: human norepinephrine transporter (NET) (Homo sapiens, UniProt P23975); assay: Binding assay to human norepinephrine transporter (NET) ([3H]-Nisoxetin); conditions: [3H]-Nisoxetin 5 nM, human NET enriched membranes
# Sequence of human norepinephrine transporter (NET) (P23975 whole entry): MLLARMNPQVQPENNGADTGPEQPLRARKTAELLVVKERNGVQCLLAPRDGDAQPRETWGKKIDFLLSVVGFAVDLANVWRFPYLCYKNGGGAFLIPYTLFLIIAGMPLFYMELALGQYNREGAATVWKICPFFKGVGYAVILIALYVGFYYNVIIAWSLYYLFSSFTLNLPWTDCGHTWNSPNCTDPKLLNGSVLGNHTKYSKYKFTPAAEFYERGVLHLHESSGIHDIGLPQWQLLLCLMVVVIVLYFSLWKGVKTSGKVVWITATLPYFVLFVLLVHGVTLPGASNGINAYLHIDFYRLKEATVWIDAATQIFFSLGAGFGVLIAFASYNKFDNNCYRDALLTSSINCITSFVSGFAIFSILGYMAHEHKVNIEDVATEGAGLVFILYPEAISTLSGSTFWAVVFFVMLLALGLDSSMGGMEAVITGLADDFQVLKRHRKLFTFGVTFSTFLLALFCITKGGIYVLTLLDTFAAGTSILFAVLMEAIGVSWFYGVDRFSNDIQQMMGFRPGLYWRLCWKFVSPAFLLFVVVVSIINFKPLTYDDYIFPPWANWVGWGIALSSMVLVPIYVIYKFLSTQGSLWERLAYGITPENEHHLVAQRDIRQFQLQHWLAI
# Protocol: Binding assay to human norepinephrine transporter (NET).
# Human norepinephrine transporter (NET) enriched membranes ([…]) were incubated with 5 nM of radiolabeled [3H]-Nisoxetin in assay buffer containing 50mM Tris-HCl, 120mM NaCl, 5mM KCI, pH 7.4. NSB (non specific binding) was measured by adding […] of desipramine. The binding of the test compound was measured at either one concentration (% inhibition at 1 or 10 μM) or five different concentrations to determine affinity values (Ki). After 60 min incubation at 4° C., binding reaction was terminated by filtering through Multiscreen GF/C (Millipore) presoaked in 0.5% polyethyleneimine in Vacuum Manifold Station, followed by 3 washes with ice-cold filtration buffer containing 50mM Tris-HCl, 0.9% NaCl, pH 7.4. Filter plates were dried at 60° C. for 1 hour and 30 µl of scintillation cocktail were added to each well before radioactivity reading. Readings were performed in a Trilux 1450 Microbeta radioactive counter (Perkin Elmer).
# Sequence of human α2δ-1 subunit of Cav2.2 calcium channel (P54289 25-1103): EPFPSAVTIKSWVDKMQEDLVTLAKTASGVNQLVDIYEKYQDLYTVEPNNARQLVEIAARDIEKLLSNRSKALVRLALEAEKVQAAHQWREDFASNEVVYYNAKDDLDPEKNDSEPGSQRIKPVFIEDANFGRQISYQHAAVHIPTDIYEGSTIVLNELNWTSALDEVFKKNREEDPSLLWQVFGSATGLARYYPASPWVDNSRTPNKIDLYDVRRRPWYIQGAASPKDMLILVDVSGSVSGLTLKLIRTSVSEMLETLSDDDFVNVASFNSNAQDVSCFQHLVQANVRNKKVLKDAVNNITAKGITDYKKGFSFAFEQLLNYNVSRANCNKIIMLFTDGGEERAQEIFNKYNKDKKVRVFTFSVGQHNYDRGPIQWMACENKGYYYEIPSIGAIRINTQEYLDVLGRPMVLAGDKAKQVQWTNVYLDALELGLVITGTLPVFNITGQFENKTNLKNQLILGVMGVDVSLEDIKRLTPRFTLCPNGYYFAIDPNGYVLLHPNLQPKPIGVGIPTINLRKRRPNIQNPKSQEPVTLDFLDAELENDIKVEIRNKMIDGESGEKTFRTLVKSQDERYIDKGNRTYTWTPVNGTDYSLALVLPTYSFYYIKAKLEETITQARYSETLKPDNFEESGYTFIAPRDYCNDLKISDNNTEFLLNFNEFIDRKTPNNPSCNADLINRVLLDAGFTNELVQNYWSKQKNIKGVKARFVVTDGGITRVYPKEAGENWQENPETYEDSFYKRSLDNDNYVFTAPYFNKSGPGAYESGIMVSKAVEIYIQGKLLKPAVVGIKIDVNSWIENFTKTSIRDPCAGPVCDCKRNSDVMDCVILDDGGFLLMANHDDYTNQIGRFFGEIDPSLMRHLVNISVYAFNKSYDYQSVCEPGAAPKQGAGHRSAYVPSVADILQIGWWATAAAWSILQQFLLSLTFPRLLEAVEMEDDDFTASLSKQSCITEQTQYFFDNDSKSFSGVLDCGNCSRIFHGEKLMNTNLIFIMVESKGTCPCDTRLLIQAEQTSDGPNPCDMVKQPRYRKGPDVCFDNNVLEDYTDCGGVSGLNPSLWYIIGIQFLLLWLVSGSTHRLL
Structure (SMILES),Ki [1] [nM],Ki [2] [nM]
"CNCC[C@H](Oc1cnc(CN2CCN(C)c3nc(N)ncc3C2=O)c(F)c1)c1cccc(F)c1 [Example 7, (S)-2-Amino-6-((3-fluoro-5-(1-(3-fluorophenyl)-3-(methylamino)propoxy)pyridin-2-yl)methyl)-9-methyl-6,7,8,9-tetrahydro-5H-pyrimido[4,5-e][1,4]diazepin-5-one]",< 100,< 100
"CNCC[C@H](Oc1ccc(CN2CCN(C)c3ncncc3C2=O)c(F)c1)c1ccccc1 [Example 10, (S)-6-(2-Fluoro-4-(3-(methylamino)-1-phenylpropoxy)benzyl)-9-methyl-6,7,8,9-tetrahydro-5H-pyrimido[4,5-e][1,4]diazepin-5-one]",< 100,< 100
"CNCC[C@H](Oc1ccc(CN2CCN(C)c3nc(N)ncc3C2=O)c(Cl)c1)c1ccccc1 [Example 4, (S)-2-Amino-6-(2-chloro-4-(3-(methylamino)-1-phenylpropoxy)benzyl)-9-methyl-6,7,8,9-tetrahydro-5H-pyrimido[4,5-e][1,4]diazepin-5-one]",< 100,< 100
"CCNc1ncc2c(n1)N(C)CCN(Cc1ccc(O[C@H](CCNC)c3cccc(F)c3)cc1F)C2=O [Example 13, (R)-2-(Ethylamino)-6-(2-fluoro-4-(1-(3-fluorophenyl)-3-(methylamino)propoxy)benzyl)-9-methyl-6,7,8,9-tetrahydro-5H-pyrimido[4,5-e][1,4]diazepin-5-one]",≥ 3000,500 to 1000
"CCNc1ncc2c(n1)N(C)CCN(Cc1ccc(O[C@@H](CCNC)c3ccccc3)cc1Cl)C2=O [Example 5, (S)-6-(2-Chloro-4-(3-(methylamino)-1-phenylpropoxy)benzyl)-2-(ethylamino)-9-methyl-6,7,8,9-tetrahydro-5H-pyrimido[4,5-e][1,4]diazepin-5-one]",< 100,100 to 500
"CNCC[C@H](Oc1ccc(CN2CCN(C)c3ccncc3C2=O)c(C)c1)c1ccccc1 [Example 1, (S)-1-Methyl-4-(2-methyl-4-(3-(methylamino)-1-phenylpropoxy)benzyl) -1,2,3,4-tetrahydro-5H-pyrido[4,3-e][1,4]cliazepin-5-one]",100 to 500,100 to 500
"CNCC[C@H](Oc1ccc(CN2CCN(C)c3ncncc3C2=O)c(C)c1)c1ccccc1 [Example 3, (S)-9-Methyl-6-(2-methyl-4-(3-(methylamino)-1-phenylpropoxy)benzyl)-6,7,8,9-tetrahydro-5H-pyrimido[4,5-e][1,4]diazepin-5-one]",< 100,< 100
"CNCC[C@H](Oc1ccc(CN2CCN(C)c3nc(OC)ncc3C2=O)c(C)c1)c1ccccc1 [Example 2, (S)-2-Methoxy-9-methyl-6-(2-methyl-4-(3-(methylamino)-1-phenylpropoxy)benzyl)-6,7,8,9-tetrahydro-5H-pyrimido[4,5-e][1,4]diazepin-5-one]",< 100,< 100
"CCNc1ncc2c(n1)N(C)CCN(Cc1ccc(O[C@@H](CCNC)c3cccc(F)c3)cc1F)C2=O [Example 14, (S)-2-(Ethylamino)-6-(2-fluoro-4-(1-(3-fluorophenyl)-3-(methylamino)propoxy)benzyl)-9-methyl-6,7,8,9-tetrahydro-5H-pyrimido[4,5-e][1,4]diazepin-5-one]",< 100,100 to 500

# Next, values leading:
Ki [1] [nM],Ki [2] [nM],Structure (SMILES)
< 100,100 to 500,"CCNc1ncc2c(n1)N(C)CCN(Cc1ncc(O[C@@H](CCNC)c3cccc(F)c3)cc1F)C2=O [Example 6, (S)-2-(Ethylamino)-6-((3-fluoro-5-(1-(3-fluorophenyl)-3-(methylamino)propoxy)pyridin-2-yl)methyl)-9-methyl-6,7,8,9-tetrahydro-5H-pyrimido[4,5-e][1,4]diazepin-5-one]"
< 100,100 to 500,"CNCC[C@H](Oc1ccc(CN2CCN(C)c3nc(OC)ncc3C2=O)c(F)c1)c1ccccc1 [Example 9, (S)-6-(2-Fluoro-4-(3-(methylamino)-1-phenylpropoxy)benzyl)-2-methoxy-9-methyl-6,7,8,9-tetrahydro-5H-pyrimido[4,5-e][1,4]diazepin-5-one]"
< 100,100 to 500,"CNCC[C@H](Oc1ccc(CN2CCN(C)c3cc(OC)ncc3C2=O)c(F)c1)c1ccccc1 [Example 12, (S)-4-(2-Fluoro-4-(3-(methylamino)-1-phenylpropoxy)benzyl)-8-methoxy-1-methyl-1,2,3,4-tetrahydro-5H-pyrido[4,3-e][1,4]diazepin-5-one]"
< 100,< 100,"CNCC[C@H](Oc1cnc(CN2CCN(C)c3cc(OC)ncc3C2=O)c(F)c1)c1cccs1 [Example 15, (S)-4-((3-Fluoro-5-(3-(methylamino)-1-(thiophen-2-yl)propoxy)pyridin-2-yl)methyl)-8-methoxy-1-methyl-1,2,3,4-tetrahydro-5H-pyrido[4,3-e][1,4]diazepi n-5-one.]"
< 100,100 to 500,"CNCC[C@H](Oc1ccc(CN2CCN(C)c3ccncc3C2=O)c(F)c1)c1ccccc1 [Example 8, (S)-4-(2-Fluoro-4-(3-(methylamino)-1-phenylpropoxy)benzyI)-1-methyl-1,2,3,4-tetrahydro-5H-pyrido[4,3-e][1,4]diazepin-5-one]"
< 100,100 to 500,"CNCC[C@H](Oc1ccc(CN2CCN(C)c3nc(N)ncc3C2=O)c(F)c1)c1ccccc1 [Example 11, (S)-2-Amino-6-(2-fluoro-4-(3-(methylamino)-1-phenylpropoxy)benzyl)-9-methyl-6,7,8,9-tetrahydro-5H-pyrimido[4,5-e][1,4]diazepin-5-one]"
